Data published in ChEMBL document CHEMBL1133198, “Prenylated xanthones as potential P-glycoprotein modulators” (Bioorg Med Chem Lett, 2000).

Test: Binding affinity of compound to P-glycoprotein recombinant domain of prenylated xanthones was evaluated

Work on `COc1cc2oc3ccc(OC)c(OC)c3c(=O)c2c(O)c1CC=C(C)C` yielded a Kd of 0.39 µM.
In the case of `COc1cc(O)c2c(=O)c3c(OC)c(OC)ccc3oc2c1CC=C(C)C`, the Kd is reported as 0.59 µM.
Work on `COCCOCOc1cc(O)c2c(=O)cc(-c3ccccc3)oc2c1CC=C(C)C` yielded a Kd of 0.1 µM.
Molecule `C=CC(C)(C)c1c(OCOCCOC)cc2oc(-c3ccccc3)cc(=O)c2c1O` has a Kd of 0.1 µM.
`COCCOCOc1cc(O)c2c(=O)cc(-c3ccccc3)oc2c1` showed a Kd of 8.05 µM.
Work on `C=CC(C)(C)c1c(OC)cc2oc3ccc(OC)c(OC)c3c(=O)c2c1O` yielded a Kd of 0.25 µM.
Molecule `COCCOCOc1cc(OCC=C(C)C)c2c(=O)cc(-c3ccccc3)oc2c1` has a Kd of 6.1 µM.
`COc1cc(OCC=C(C)C)c2c(=O)c3c(OC)c(OC)ccc3oc2c1` showed a Kd of 13.9 µM.
In the case of `COc1cc2oc3ccc(OC)c(OC)c3c(=O)c2c2c1C(C)(C)C(C)O2` (stereo not given), the Kd is reported as 24.8 µM.
With `COc1cc(O)c2c(=O)c3c(OC)c(OC)ccc3oc2c1` [DECUSSATIN] the Kd was 28.8 µM.
